Here are results for two compounds from patent US4943566A, “Novel 17-aryl-steroids” (Roussel Uclafi, priority 1987, dated 1990).

The target of test [1] is T1, glucocorticoid receptor, rat thymus (Rattus norvegicus, UniProt P06536).
T1 construct: The second test was a glucocrticoid receptor test on rat thymus; from tissue; host or cells: thymus of adrenalectomized male Sprague Dawley EOPS rats, 105,000 g supernatant (cytosol)
T1 sequence (P06536 1-795): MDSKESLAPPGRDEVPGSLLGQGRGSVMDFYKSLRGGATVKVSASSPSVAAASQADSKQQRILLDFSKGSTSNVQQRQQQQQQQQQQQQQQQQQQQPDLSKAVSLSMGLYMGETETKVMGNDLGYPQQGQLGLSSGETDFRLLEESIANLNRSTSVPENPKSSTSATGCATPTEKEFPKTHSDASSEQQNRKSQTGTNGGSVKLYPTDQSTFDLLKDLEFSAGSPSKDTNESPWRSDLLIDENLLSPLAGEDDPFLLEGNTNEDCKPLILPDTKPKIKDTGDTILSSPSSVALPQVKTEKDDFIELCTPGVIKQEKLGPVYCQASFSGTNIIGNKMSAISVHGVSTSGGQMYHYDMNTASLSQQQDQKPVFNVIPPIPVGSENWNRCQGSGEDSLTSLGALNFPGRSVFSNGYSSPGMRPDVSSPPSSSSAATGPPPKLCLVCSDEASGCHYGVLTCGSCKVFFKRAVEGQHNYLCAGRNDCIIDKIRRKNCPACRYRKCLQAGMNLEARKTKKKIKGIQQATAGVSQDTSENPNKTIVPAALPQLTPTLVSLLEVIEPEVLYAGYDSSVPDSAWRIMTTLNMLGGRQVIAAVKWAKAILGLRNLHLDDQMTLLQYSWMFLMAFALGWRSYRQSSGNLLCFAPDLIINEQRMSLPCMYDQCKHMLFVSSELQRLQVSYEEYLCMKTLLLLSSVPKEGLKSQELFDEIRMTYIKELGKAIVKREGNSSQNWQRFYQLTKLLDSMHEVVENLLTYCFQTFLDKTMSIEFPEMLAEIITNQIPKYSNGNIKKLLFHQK
The experiment in a line: Relative binding affinity (ARL), glucocorticoid receptor of rat thymus. To be noted: rat thymus cytosol, tritiated dexamethasone, cold reference dexamethasone; for relative affinity of the bond (ARL), Glucocorticoid, 2H: incubation 2H at 0° C.; for relative affinity of the bond (ARL), Glucocorticoid, 24H: incubation 24H at 0° C. The protocol:
The second test was a glucocrticoid receptor test on rat thymus in which male rats of the Sprague Dawley EOPS strain weighing 160 to 200 g were surrenalectomized. 4 to 8 days after this ablation, the animals were killed and the thymus was removed and homogenized at 0° C. in a buffered TS solution. (Tris 10 mM, 0.25M saccharose, 2 mM dithiothreitol, HCl pH 7.4) with a Potter tetrafluoroethylene-glass (1 g of tissue per 10 ml/TS). The homogenate was ultracentrifuged at 105,000 for 90 minutes at 0° C. and the surnageant samples were incubated at 0° C. for a time t with a constant concentration T of tritiated dexamethasone in the presence of increasing concentrations (0-2500×10^-9 M) or cold dexamethasone or cold test compound. The concentration B of bound tritiated dexamethasone was measured for each incubate by carbon-dextran absorption technique.
(§1) The relative affinity of the bond (ARL) was calculated in the same for the receptors. One traced the following 2 curves: the percentage of bond tritiated hormone B/T as a logarithmic function of the concentration of the cold reference hormone and B/T as a logarithmic function of the concentration of the cold test compound. Using the equation [formula] B/T max.=% of bound tritiated hormone for one incubation of tritiated hormone at concentration (T)
(§2) B/T min.=% of bound tritiated hormone for one incubation of tritiated hormone at a concentration T in the presence of a great excess of cold hormone (2500×10^-9 M).
(§3) The intersections of I50 lines and the curves permit an evaluation of the hormone concentration of the cold reference (CH) and the cold test compound (CX) which inhibited by 50% the bounding of tritiated hormone to the receptor. The ARL of the test compound was determined by the equation. [formula] and the following results were obtained.

In test [2] the target is T2, progesterone receptors of rabbit uterus (Oryctolagus cuniculus, UniProt P06186).
T2 construct: The first test was on the progesterone receptors of rabbit uterus; from tissue; host or cells: uterus of estradiol-treated immature rabbits, 105,000 g supernatant (cytosol)
T2 sequence (P06186 1-930): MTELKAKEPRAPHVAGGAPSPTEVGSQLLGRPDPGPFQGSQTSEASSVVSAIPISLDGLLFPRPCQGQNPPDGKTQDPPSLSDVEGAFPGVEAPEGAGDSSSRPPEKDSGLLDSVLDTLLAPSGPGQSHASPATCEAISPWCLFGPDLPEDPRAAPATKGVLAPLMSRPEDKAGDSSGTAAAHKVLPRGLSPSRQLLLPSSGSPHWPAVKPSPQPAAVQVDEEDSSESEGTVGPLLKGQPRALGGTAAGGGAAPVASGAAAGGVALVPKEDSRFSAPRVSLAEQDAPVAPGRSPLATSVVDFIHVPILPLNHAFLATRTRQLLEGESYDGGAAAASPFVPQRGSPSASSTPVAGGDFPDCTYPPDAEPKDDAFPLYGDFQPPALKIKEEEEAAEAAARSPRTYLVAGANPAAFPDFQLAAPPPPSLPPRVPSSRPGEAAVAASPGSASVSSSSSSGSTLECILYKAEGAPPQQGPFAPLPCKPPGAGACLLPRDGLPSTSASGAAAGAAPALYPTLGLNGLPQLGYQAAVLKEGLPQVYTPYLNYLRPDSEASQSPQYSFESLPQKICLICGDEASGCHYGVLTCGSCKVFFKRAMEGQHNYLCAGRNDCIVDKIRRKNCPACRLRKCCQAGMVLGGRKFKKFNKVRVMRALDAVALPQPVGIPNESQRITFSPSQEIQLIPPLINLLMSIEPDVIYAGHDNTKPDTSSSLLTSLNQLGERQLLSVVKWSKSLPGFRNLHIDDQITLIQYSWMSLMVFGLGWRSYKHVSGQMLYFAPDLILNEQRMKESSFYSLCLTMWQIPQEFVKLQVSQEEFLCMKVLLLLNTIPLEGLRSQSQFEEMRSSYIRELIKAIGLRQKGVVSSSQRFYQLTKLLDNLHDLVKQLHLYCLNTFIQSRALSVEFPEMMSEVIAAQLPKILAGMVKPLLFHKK
The experiment in a line: Relative binding affinity (ARL), progesterone receptors of rabbit uterus. The following applies: rabbit uterus cytosol, tritiated 17,21-dimethyl-19-nor-Δ4,9-pregnadiene-3,20-dione, cold reference hormone progesterone; for relative affinity of the bond (ARL), Progestogen, 2H: incubation 2H at 0° C.; for relative affinity of the bond (ARL), Progestogen, 24H: incubation 24H at 0° C. The procedure: The first test was on the progesterone receptors of rabbit uterus in which immature rabbits weighing about 1 kg received a cutaneous application of […] of estradiol and 5 days after treatment, the animals were sacrificed. The […] was removed, weighed and homogenized at 0° C. with a Potter Teflon-glass ina buffered solution. TS (Tris 10 mM, 0.25M Saccharose, HCl, pH 7.4) (1 g of tissue per 50 ml of TS). The homogenate was ultracentrifuged at 105,000 g×90 minutes at 0° C. The surnageant samples were incubated at a time at (t) 0° C. with a constant concentration (T) of tritiated product (R) which is 17,21-dimethyl-19-nor-Δ^4,9 -pregnadiene-3,20-dione in the presence of increasing concentrations from 0 to 2500×10^-9 M or cold R or cold progestenone or cold test compound. The concentration of bound tritiated R was measured for each incubate by absorption technique on dextran carbon.
as §1, §2, §3

In the case of `CN(C)c1ccc([C@H]2C[C@@]3(C)[C@@H](CC[C@@]3(O)c3ccc(N(C)C)cc3)[C@@H]3CCC4=CC(=O)CCC4=C32)cc1` [Example 2, 11β,17α-bis-(4-dimethylamino-phenyl)-Δ^4,9-estradiene-17β-ol-3-one], in test [1], the “relative affinity of the bond (ARL), Glucocorticoid, 2H” value came to 61 and the “relative affinity of the bond (ARL), Glucocorticoid, 24H” value worked out at 58. Besides, in test [2], the “relative affinity of the bond (ARL), Progestogen, 2H” value is 32 and the “relative affinity of the bond (ARL), Progestogen, 24H” value worked out at 183.

For `COc1ccc([C@]2(O)CC[C@H]3[C@@H]4CCC5=CC(=O)CCC5=C4[C@@H](c4ccc(N(C)C)cc4)C[C@@]32C)cc1` [Example 4, 11β-(4-dimethylamino-phenyl)-17α-(4-methoxy-phenyl)-Δ^4,9-estradiene-17β-ol-3-one], in test [1], the “relative affinity of the bond (ARL), Glucocorticoid, 2H” value is reported as 65 and the “relative affinity of the bond (ARL), Glucocorticoid, 24H” value was 69. For the same compound, in test [2], the “relative affinity of the bond (ARL), Progestogen, 2H” value is given as 51 and the “relative affinity of the bond (ARL), Progestogen, 24H” value was found to be 264.
